Test results from ChEMBL document CHEMBL4229536, “In vitro and in vivo pharmacokinetic and pharmacodynamic study of MBRI-001, a deuterium-substituted plinabulin derivative as a potent anti-cancer agent” (Bioorg Med Chem, 2018).

Assays:
[1] = Stability in rat plasma at 1 uM after 5 mins by LC-MS/MS analysis; assay type: ADME, cell-free; settings: read-out: Stability
[2] = Stability in rat plasma at 1 uM after 90 mins by LC-MS/MS analysis; assay type: ADME, cell-free; settings: read-out: Stability
[3] = Stability in rat liver microsomes at 50 uM after 20 mins in presence of NADPH by LC-MS/MS analysis; assay type: ADME, microsome; settings: read-out: Stability
[4] = Stability in rat liver microsomes at 50 uM after 90 mins in presence of NADPH by LC-MS/MS analysis; assay type: ADME, microsome; settings: read-out: Stability
[5] = Clearance in rat liver microsomes at 50 uM in presence of NADPH by LC-MS/MS analysis; assay type: ADME, microsome; settings: read-out: CLH
Cytochrome P450 1A2 = target: T1, Cytochrome P450 1A2 (Homo sapiens, UniProt P05177); experiment: Inhibition of CYP1A2 in human liver microsomes preincubated for 10 mins followed by NADPH addition measured after 10 mins by LC-MS/MS analysis; assay type: ADME
T1 sequence (P05177 whole entry): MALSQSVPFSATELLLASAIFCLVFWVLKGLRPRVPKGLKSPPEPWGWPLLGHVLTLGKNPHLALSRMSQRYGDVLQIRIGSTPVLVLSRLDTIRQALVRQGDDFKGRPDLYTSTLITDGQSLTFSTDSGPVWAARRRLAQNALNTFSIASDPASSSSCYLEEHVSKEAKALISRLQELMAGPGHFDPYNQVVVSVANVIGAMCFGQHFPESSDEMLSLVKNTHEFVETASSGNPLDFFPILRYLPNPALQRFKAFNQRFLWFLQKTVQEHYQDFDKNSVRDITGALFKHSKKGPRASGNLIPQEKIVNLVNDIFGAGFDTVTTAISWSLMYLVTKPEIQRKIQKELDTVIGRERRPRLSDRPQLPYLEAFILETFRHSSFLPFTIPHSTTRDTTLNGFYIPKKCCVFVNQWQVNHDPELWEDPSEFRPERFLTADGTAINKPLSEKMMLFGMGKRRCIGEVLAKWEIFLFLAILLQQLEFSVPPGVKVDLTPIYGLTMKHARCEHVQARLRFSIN

[6] = Drug uptake in Wistar rat large intestine at 6 mg/kg, iv measured after 1 hr; assay type: ADME, organism-based; settings: in vivo
[7] = Drug uptake in Wistar rat pancreas at 6 mg/kg, iv measured after 4 hrs; assay type: ADME, organism-based; settings: in vivo
[8] = Drug uptake in Wistar rat spleen at 6 mg/kg, iv measured after 4 hrs; assay type: ADME, organism-based; settings: in vivo
[9] = Drug uptake in Wistar rat large intestine at 6 mg/kg, iv measured after 4 hrs; assay type: ADME, organism-based; settings: in vivo
[10] = Drug uptake in Wistar rat lungs at 6 mg/kg, iv measured after 4 hrs; assay type: ADME, organism-based, Lung; settings: in vivo
[11] = Drug uptake in Wistar rat pancreas at 6 mg/kg, iv measured after 8 hrs; assay type: ADME, organism-based; settings: in vivo
[12] = Drug uptake in Wistar rat heart at 6 mg/kg, iv measured after 12 hrs; assay type: ADME, organism-based; settings: in vivo
[13] = Drug uptake in Wistar rat brain at 6 mg/kg, iv measured after 12 hrs; assay type: ADME, organism-based; settings: in vivo
[14] = Drug excretion in Wistar rat feces at 4 mg/kg, iv measured after 8 hrs; assay type: ADME, organism-based; settings: faeces, read-out: Drug excretion
[15] = Drug excretion in Wistar rat feces at 4 mg/kg, iv measured after 36 hrs; assay type: ADME, organism-based; settings: faeces, read-out: Drug excretion
[16] = Drug excretion in Wistar rat urine at 4 mg/kg, iv measured after 4 hrs; assay type: ADME, organism-based; settings: read-out: Drug excretion
[17] = Drug excretion in Wistar rat urine at 4 mg/kg, iv measured after 72 hrs; assay type: ADME, organism-based; settings: read-out: Drug excretion
[18] = Toxicity in Balb/c mouse administered iv three times in a day every 2 days for 15 consecutive days; assay type: organism-based; settings: in vivo
Mus musculus [19] = experiment: Toxicity in nude mouse xenografted with human NCI-H460 cells assessed as body weight at 6 mg/kg, iv administered once in every 2 days for 14 consecutive days (reference value: 20.6 +/- 1.5 g); assay type: organism-based; settings: in vivo, 48 h
NCI-H460 [20] = experiment: Antitumor activity against human NCI-H460 cells xenografted in nude mouse assessed as inhibition of tumor weight at 3 mg/kg, iv administered once in every 2 days for 14 consecutive days cotreated with 25 mg/kg gefitinib once daily for 14 consecutive days relative to control; assay type: functional
NCI-H460 [21] = experiment: Antitumor activity against human NCI-H460 cells xenografted in nude mouse assessed as inhibition of tumor volume at 6 mg/kg, iv administered once in every 2 days for 14 consecutive days cotreated with 50 mg/kg gefitinib once daily for 14 consecutive days relative to control; assay type: functional
Mus musculus [22] = experiment: Toxicity in nude mouse xenografted with human NCI-H460 cells assessed as death at 3 to 9 mg/kg, iv administered once in every 2 days for 14 consecutive days; assay type: organism-based; settings: in vivo, 48 h

[2H]/C(c1nc[nH]c1C(C)(C)C)=c1/[nH]c(=O)/c(=C/c2ccccc2)[nH]c1=O
remaining at 5 min, 1 µM [1]: 93.9% | remaining at 1.5 h, 1 µM [2]: 99.3% | remaining at 20 min, 50 µM [3]: 74.8% | remaining at 1.5 h, 50 µM [4]: 39.9% | microsomal CLint at 50 µM [5]: 16.3 µL/min/mg | IC50 (Cytochrome P450 1A2): 1020 nM | Drug uptake [6]: 1421.7 ng/mL/g | Drug uptake [7]: 1366.3 ng/mL/g | Drug uptake [8]: 1519.6 ng/mL/g | Drug uptake [9]: 359 ng/mL/g | Drug uptake [10]: 49038.9 ng/mL/g | Drug uptake [11]: 399 ng/mL/g | Drug uptake [12]: 54.7 ng/mL/g | Drug uptake [13]: 83 ng/mL/g | dose excreted at 8 h [14]: 0.11% | dose excreted at 36 h [15]: 5.85% | dose excreted at 4 h [16]: 0.27% | dose excreted at 72 h [17]: 0.5% | MTD at 48 h [18]: 15 mg/kg | Activity (Mus musculus [19]): 21.1 g | inhibition (INH) (NCI-H460 [20]): 53.3% | inhibition (INH) (NCI-H460 [21]): 67.8% | Activity (Mus musculus [22]): Non-Toxic
